Values quoted from earlier work, collected in patent publication US12100485B2, “Machine learning and molecular simulation based methods for enhancing binding and activity prediction” (The Board of Trustees of the Leland Stanford Junior …, priority 2018, dated 2024).

System: μOR
Conditions: not given

Structure (SMILES) | Action
N#CC(CCN1CCC(C(=O)O)(c2ccccc2)CC1)(c1ccccc1)c1ccccc1 [difenoxin] | agonist
CN(C)[C@H](Cc1ccccc1)c1ccccc1 [lefetamine] | agonist
CCC(=O)O[C@](Cc1ccccc1)(c1ccccc1)[C@H](C)CN(C)C [dextropropoxyphene] | agonist
Oc1ccc2c3c1O[C@H]1[C@H](F)CC[C@@]4(O)[C@@H](C2)N(CC2CC2)CC[C@]314 [cyclofoxy] | antagonist
CCC(=O)C(CC(C)N(C)C)(c1ccccc1)c1ccccc1 (stereo not shown) [methadone] | agonist
CO[C@H]1C=C[C@H]2[C@H]3Cc4ccc(O)c5c4[C@@]2(CCN3C)[C@H]1O5 [heterocodeine] | agonist
C=CCC1CN(C)CCC1(OC(=O)CC)c1ccccc1 (stereo not shown) [allylprodine] | agonist
CC1=CC[C@H]2[C@H]3Cc4ccc(O)c5c4[C@@]2(CCN3C)[C@H]1O5 [methyldesorphine] | agonist
CN1CC[C@]23c4c5ccc(O)c4O[C@H]2[C@@H](O)CC[C@H]3[C@H]1C5 [dihydromorphine] | agonist
C[C@H](CN1CCOCC1)C(C(=O)N1CCCC1)(c1ccccc1)c1ccccc1 [dextromoramide] | agonist
CC[C@@H](O)C(C[C@@H](C)N(C)C)(c1ccccc1)c1ccccc1 [alphamethadol] | agonist
CN1CC[C@]23CCCC[C@H]2[C@H]1Cc1ccc(O)cc13 [levorphanol] | agonist
CN1CC[C@]23c4c5ccc(O)c4O[C@H]2/C(=N\N)CC[C@@]3(O)[C@H]1C5 [oxymorphazone] | agonist
O=C(CN1CC[C@]23CCCC[C@H]2[C@H]1Cc1ccc(O)cc13)c1ccccc1 [levophenacylmorphan] | agonist
C=CCN1CC[C@]23c4c5ccc(O)c4O[C@H]2/C(=N\N)CC[C@@]3(O)[C@H]1C5 [naloxazone] | Antagonists
CC[C@@H](OC(C)=O)C(C[C@@H](C)N(C)C)(c1ccccc1)c1ccccc1 [alphacetylmethadol] | agonist

Same assay, conditions: known pharmacology, training dataset

Structure (SMILES) | Action
C[C@H]1CN(C[C@H](Cc2ccccc2)C(=O)NCC(=O)O)CC[C@@]1(C)c1cccc(O)c1 [alvimopan] | antagonist
CN(C)CC(C)(C)C(=O)c1ccccc1 [dimethylaminopivalophenone] | agonist
O=C1CC[C@@]2(O)[C@H]3Cc4ccc(O)c5c4[C@@]2(CCN3CC2CC2)[C@H]1O5 [naltrexone] | Antagonists
